Test results: patent US20080125496A1, “ANTIMICROBIAL FLAVOR AND ORAL CARE COMPOSITION CONTAINING THE SAME” (TAKASAGO INTERNATIONAL CORPORATION, priority 2001, published 2008)
Converted amounts (≈) assume the structure as drawn. Like-named read-outs stand apart in the source and are kept apart here.

Columns and labels:
Type in all cases: cell-based
[1] = tested on: Streptococcus mutans JCM 5175; test: MIC by agar plate dilution method, Su-1; conditions: for MIC: Streptococcus mutans, read-out: MIC Su-1 (caries-related bacteria)
Description: (§1) The minimum inhibitory activities of the antimicrobial flavors of the invention on anaerobic oral bacteria were measured by an agar plate dilution method.
(§2) All the test strains were obtained from Riken (The Institute of Physical and Chemical Research). The names and abbreviations of the strains are shown in Table 1 below (The abbreviations are used in the following description).
(§3) Each test microorganism kept frozen (−80° C.) in glycerol at a concentration of 25% was thawed. A 100 μl portion of the suspension was inoculated into 10 ml of a liquid medium. A Gifu university anaerobic medium (GAM) (Nissui Pharmaceutical Co., Ltd) having added thereto Hemin (Tokyo Kasei) and Menadione (Sigma) was used for Su-1 and Fn-1. Schaedler Broth (BBL) having added thereto Hemin and Menadione was used for the other strains. The culture was anaerobically incubated at 37° C. for 72 hours by using BBL Gas Pack Anaerobic System. After the cultivation, the microbial cell suspension of Su-1 was 10-fold diluted to prepare an inoculum. The cultures of Fn-1 and Pg-1 were used as such as an inoculum. The cultures of Pt-1, Aa-1, and Av-1 were subjected to centrifugation, and the separated microbial cells were suspended in 2 ml of sterilized physiological saline to prepare the respective inoculums.
(§4) An agar medium prepared by adding 2% agar (Difco), Hemin, and Menadione to Trypticase Soy Broth (BBL) was used. A test sample (antimicrobial flavor) was dissolved in ethanol to prepare 2-fold serial dilutions. To 10 ml of the agar medium was added 100 μl of each dilution and stirred well. The agar medium was transferred to a petri dish (diameter: 9 cm) and solidified at room temperature. The solidified agar medium was inoculated with 5 μl of the inoculum by means of a multipoint inoculator (Microplanter MIT-P27, supplied by Sakuma Seisakusho), followed by culturing at 37° C. for 72 hours under anaerobic conditions. The growth of the test microorganism was compared with a blank petri dish (the agar medium to which 100 μl of ethanol had been added). The lowest sample concentration that inhibited growth was taken as MIC (ppm).
(§5) Antimicrobial activities (MIC; ppm) of the aromahygiene base (AHB) prepared in (1) and the antimicrobial flavor compositions prepared in (2) (Examples 2-1 to 2-3) and Comparative Examples 2-1 to 2-3 were measured in the same manner as in Example 1 (2).

[2] = tested on: Actinomyces naeslundii JCM 8350; test: MIC by agar plate dilution method, Aa-1; conditions: for MIC: Actinomyces naeslundii, read-out: MIC Aa-1 (caries-related bacteria)
Description: as §1, §2, §3, §4, §5

[3] = tested on: Actinomyces viscosus JCM 8352; test: MIC by agar plate dilution method, Av-1; conditions: for MIC: Actinomyces viscosus, read-out: MIC Av-1 (caries-related bacteria)
Description: as §1, §2, §3, §4, §5

[4] = tested on: Fusobacterium nucleatum JCM 6328; test: MIC by agar plate dilution method, Fn-1; conditions: for MIC: Fusobacterium nucleatum, read-out: MIC Fn-1 (paradentosis-related bacteria)
Description: as §1, §2, §3, §4, §5

[5] = tested on: Porphyromonas gingivalis JCM 8525; test: MIC by agar plate dilution method, Pg-1; conditions: for MIC: Porphyromonas gingivalis, read-out: MIC Pg-1 (paradentosis-related bacteria; head Fg-1 in Tables 2 and 3)
Description: as §1, §2, §3, §4, §5

[6] = tested on: Prevotella intermedia JCM 6322; test: MIC by agar plate dilution method, Pt-1; conditions: for MIC: Prevotella intermedia, read-out: MIC Pt-1 (paradentosis-related bacteria)
Description: as §1, §2, §3, §4, §5

[7] = agar medium, 37° C., 72 hours, anaerobic conditions
[8] = JCM5175, agar medium, 37° C., 72 hours, anaerobic conditions
[9] = JCM8350, agar medium, 37° C., 72 hours, anaerobic conditions
[10] = JCM8352, agar medium, 37° C., 72 hours, anaerobic conditions
[11] = JCM6328, agar medium, 37° C., 72 hours, anaerobic conditions
[12] = JCM6322, agar medium, 37° C., 72 hours, anaerobic conditions

Row | Compound | MIC Su-1 (caries-related bacteria) [1, 7] | MIC Aa-1 (caries-related bacteria) [2, 7] | MIC Av-1 (caries-related bacteria) [3, 7] | MIC Fn-1 (paradentosis-related bacteria) [4, 7] | MIC Pg-1 (paradentosis-related bacteria; head Fg-1 in Tables 2 and 3) [5, 7] | MIC Pt-1 (paradentosis-related bacteria) [6, 7] | other results
1 | CCCc1ccc(O)c(OC)c1 [Dihydroeugenol] | 1000 ppm | 500 ppm | 500 ppm | 500 ppm | 62.5 ppm | 62.5 ppm | 
2 | CC(C)=CCC/C(C)=C/CCC(C)CCO (stereo not drawn) [Dihydrofarnesol] | 31.3 ppm | 31.3 ppm | 62.5 ppm | 31.3 ppm | 7.8 ppm | 7.8 ppm | 
3 | CCCCCCCCCCCC=O [Dodecanal] |  |  |  |  |  |  | MIC [1, 8]: 500 µg/mL (≈ 2710 µM); MIC [2, 9]: 500 µg/mL (≈ 2710 µM); MIC [3, 10]: 500 µg/mL (≈ 2710 µM); MIC [4, 11]: 125 µg/mL (≈ 678 µM); MIC ([5]; JCM8525, agar medium, 37° C., 72 hours, anaerobic conditions): 62.5 µg/mL (≈ 339 µM); MIC [6, 12]: 62.5 µg/mL (≈ 339 µM)
4 | O=C1CCCCCCCCCCC(=O)OCCO1 [Ethylenedodecanedioate] | >1000 ppm | >1000 ppm | 250 ppm | >1000 ppm | 31.3 ppm | >1000 ppm | 
5 | CC(C=O)Cc1ccc2c(c1)OCO2 (stereo not drawn) [Helional] | 1000 ppm | 250 ppm | 500 ppm | 1000 ppm | 125 ppm | 1000 ppm | 
6 | CC(C)Cc1ccc2ncccc2c1 [Isobutyl quinoline] | 1000 ppm | 250 ppm | 250 ppm | 1000 ppm | 62.5 ppm | 250 ppm | 
7 | CC/C(=C\C[C@H]1CC=C(C)C1(C)C)CO [Levosandol] | 125 ppm | 62.5 ppm | 62.5 ppm | 62.5 ppm | 31.3 ppm | 31.3 ppm | 
8 | CC(C=O)Cc1ccc(C(C)(C)C)cc1 (stereo not drawn) [Lilial] | 500 ppm | 125 ppm | 500 ppm | 500 ppm | 62.5 ppm | 62.5 ppm | 
9 | COC(=O)c1c(C)cc(O)c(C)c1O [Methyl atrarate] | >1000 ppm | 62.5 ppm | 62.5 ppm | 125 ppm | 31.3 ppm | 62.5 ppm | 
10 | CCC(O)/C(C)=C/C1(C)CC2C=CC1C2 (stereo not drawn) [Methyl sandeflor] | 500 ppm | 250 ppm | 125 ppm | 250 ppm | 62.5 ppm | 62.5 ppm | 
11 | C=CC(C)(O)CC/C=C(\C)CCC=C(C)C (stereo not drawn) [Neroridol] | 500 ppm | 125 ppm | 125 ppm | 50 ppm | 31.3 ppm | 31.3 ppm | 
12 | CC(=O)c1cc2c(cc1C)C(C)(C)C(C)C2(C)C (stereo not drawn) [Phantolid] | >1000 ppm | >1000 ppm | >1000 ppm | >1000 ppm | 31.3 ppm | 62.5 ppm | 
13 | O=CCc1ccccc1 [Phenylacetaldehyde] |  |  |  |  |  |  | MIC [1, 8]: > 1000 µg/mL; MIC [2, 9]: 500 µg/mL (≈ 4160 µM); MIC [3, 10]: 250 µg/mL (≈ 2080 µM); MIC [4, 11]: 1000 µg/mL (≈ 8320 µM); MIC ([5]; JCM8525, 72 h): 15.6 µg/mL (≈ 130 µM); MIC [6, 12]: 15.6 µg/mL (≈ 130 µM)
14 | CC1=CCC(CCC(C)C(C)O)C1(C)C (stereo not drawn) [Sandalore] | 250 ppm | 125 ppm | 125 ppm | 125 ppm | 31.3 ppm | 31.3 ppm | 
15 | CC1=CCC(C/C=C(\C)CO)C1(C)C (stereo not drawn) [Santalinol] | 250 ppm | 62.5 ppm | 62.5 ppm | 125 ppm | 15.6 ppm | 31.3 ppm | 
16 | CC(=O)c1cc2c(cc1C)C(C)(C)C(C)CC2(C)C (stereo not drawn) [Tonalid] |  |  |  |  |  |  | MIC ([1]; JCM5175, 72 h): > 1000 µg/mL; MIC ([2]; JCM8350, 72 h): > 1000 µg/mL; MIC ([3]; JCM8352, 72 h): > 1000 µg/mL; MIC ([4]; JCM6328, 72 h): > 1000 µg/mL; MIC ([5]; JCM8525, 72 h): 15.6 µg/mL (≈ 60.4 µM); MIC ([6]; JCM6322, 72 h): 62.5 µg/mL (≈ 242 µM)
17 | COc1ccccc1C=CC=O [o-Methoxycinnamic aldehyde] | 250 ppm | 250 ppm | 250 ppm | 250 ppm | 7.8 ppm | 62.5 ppm | 
18 | Isocamphylcyclohexanol | 31.3 ppm | 31.3 ppm | 31.3 ppm | 31.3 ppm | 3.9 ppm | 3.9 ppm | 
